US5116815A, “PF 1022 substance, method of treating helminthic parasitic infection and anthelmintic composition” (Meiji Seika Kaisha Ltd., priority 1989, dated 1992)
Where “and” joins values, the source holds several entries; their conditions need not be identical. Equal values may be shown once.

Columns and labels:
[1] = system: small intestinal hairworms (Trichostrongylus colubriformis); experiment: Sheep digestive tract nematodes, worms remaining in the intestinal tract; assay type: in vivo; conditions: for Number of worms remaining in At autopsy: autopsy 7 days after administration, mean of 6 animals
Procedure: (§1) The PF 1022 substance was evaluated for its anthelmintic effect in sheep mixedly infected with fourth stomachworms (Ostertaqia circumcincta) and small intestinal hairworms (Trichostrongylus colubriformis) by administering it orally to 24 sheep artificially infected with said two worm species.
(§2) The infected sheep were divided into 4 groups of 6 animals, which were respectively given 1 mg/kg, 5 mg/kg, 10 mg/kg and 0 mg/kg (control) of the substance suspended in 0.5% CMC, via a stomach catheter. The observation items were the number of parasite eggs per gram of feces (EPG) before administration, the EPG 7 days after administration, and the number of worms remaining in the fourth stomach and that of worms remaining in the intestinal tract as found upon autopsy 7 days after administration.
(§3) Each numerical value given is the mean of 6 animals.

[2] = system: fourth stomachworms (Ostertaqia circumcincta); experiment: Sheep digestive tract nematodes, worms remaining in the fourth stomach; assay type: in vivo; conditions: for number of worms remaining in the fourth stomach at autopsy: autopsy 7 days after administration, mean of 6 animals
Procedure: as §1, §2, §3

[3] = system: mammalian cell; experiment: Mammalian cell chromosomal aberration test; assay type: cell-based
[4] = system: roundworms (Toxocara canis); experiment: Anthelmintic effect on canine roundworms; assay type: in vivo; conditions: dog, single oral dose 5 mg/kg
Procedure: The PF 1022 substance was evaluated for its anthelmintic effect in dogs by orally administering it to dogs found to be infected with roundworms (Toxocara canis), hookworms (Ancylostoma caninum) and whipworms (Trichuris vulpisl), respectively, by scatoscopy.
The substance was orally administered once at the dose of 5 mg/kg to a dog infected with the roundworms or hookworms by admixing the substance with a small portion of the ordinary feed, and the worms eliminated and those remaining in the dog during 7 days following administration were counted.

[5] = system: whipworms (Trichuris suis); experiment: Anthelmintic activity against swine whipworms; assay type: in vivo; conditions: oral in feed; for Number of remaining worms: autopsy one week; for EPG Before administration: baseline; for EPG Upon autopsy: one week
Procedure: The PF 1022 substance was evaluated for its anthelmintic effect on swine whipworms by orally administering it to swine found to be infected with whipworms (Trichuris suis) by scatoscopy.
The PF 1022 substance was administered either once at 1 mg/kg, 5 mg/kg or 10 mg/kg, or at a daily dose of 2.5 mg/kg or 5 mg/kg once daily for 2 consecutive days by admixing an amount of the substance as such equal to each dose with a small portion of the ordinary feed. After administration, the number of whipworm eggs in the feces of each animal was determined daily in terms of EPG. In three animals, the worms eliminated were counted as well. One week after initiation of administration, all the animals were sacrificed and autopsied and the worms remaining in the intestinal tract were counted.

[6] = system: large intestinal roundworms (Ascaridia galli); experiment: Chicken large intestinal roundworms, administration in feed for 3 weeks; assay type: in vivo; conditions: chickens; for Number of eggs before starting administration: baseline
Procedure: The PF 1022 substance was evaluated for its anthelmintic effect on 9 chickens found, by scatoscopy, to be infected with large intestinal roundworms (Ascaridia galli) by administering it in admixture with the feed.
The chickens were divided into three groups of 3 animals, which served as the 1 ppm, 5 ppm and 10 ppm groups. The feed containing the PF 1022 substance in each concentration mentioned above was given to the chickens for 3 weeks. Parasite eggs in feces were counted at one-week intervals in terms of EPG and worms eliminated were counted daily. At the end of the administration period, the chickens were sacrificed and autopsied and the worms remaining therein were counted.

[7] = Oral toxicity in mice (body weight gain, abnormalities); assay type: in vivo; conditions: 300 mg/kg
[8] = Classification by basicity, acidity or neutrality; assay type: physicochemical
[9] = system: fourth stomachworms (Ostertaqia circumcincta) and small intestinal hairworms (Trichostrongylus colubriformis); experiment: Sheep digestive tract nematodes, mixed infection, EPG; assay type: in vivo; conditions: mean of 6 animals; for EPG At autopsy: 7 days after administration; for EPG Before administration: baseline
Procedure: as §1, §2, §3

[10] = system: roundworms (Parascaris equorum); experiment: Anthelmintic effect on equine roundworms; assay type: in vivo; conditions: horse, oral 5 mg/kg Day 0 and 2.5 mg/kg Day 1
Procedure: The PF 1022 substance was evaluated for its anthelmintic effect in a horse found by scatoscopy to be infected with roundworms (Parascaris equorum) and strongyles (Strongylus spp.) by orally administering the substance thereto.
The PF 1022 substance was suspended in water and administered with a stomach catheter at 5 mg/kg on the first day and at 2.5 mg/kg on the second day. For both the roundworms and strongyles, parasite eggs in each gram of feces (EPG) as well as parasites eliminated were counted daily for one week following the first administration. For strongyles, the number of worms in 100 g of feces was determined.

[11] = 2 administrations, 2.5 mg/kg/administration
[12] = 2 administrations, 5 mg/kg/administration

Compound: CC(C)C[C@H]1C(=O)O[C@H](Cc2ccccc2)C(=O)N(C)[C@@H](CC(C)C)C(=O)O[C@H](C)C(=O)N(C)[C@@H](CC(C)C)C(=O)O[C@H](Cc2ccccc2)C(=O)N(C)[C@@H](CC(C)C)C(=O)O[C@H](C)C(=O)N1C [PF 1022 substance]
- Number of worms remaining in At autopsy ([1]; oral 1 mg/kg): 8750
- Number of worms remaining in At autopsy ([1]; oral 5 mg/kg): 8317
- number of worms remaining in the intestinal tract relative to the control infected group ([1]; oral 10 mg/kg): about half
- Number of worms remaining in At autopsy ([1]; oral 10 mg/kg): 5333
- number of worms remaining in the fourth stomach at autopsy ([2]; oral 1 mg/kg): 4967
- number of worms remaining in the fourth stomach at autopsy ([2]; oral 5 mg/kg): 4717
- number of worms remaining in the fourth stomach relative to the control infected group ([2]; oral 10 mg/kg): about half
- number of worms remaining in the fourth stomach at autopsy ([2]; oral 10 mg/kg): 2463
- mammalian cell chromosomal aberration test result [3]: negative
- elimination [4]: 100%
- roundworms eliminated ([4]; 7 days): six
- roundworms remaining ([4]; 7 days): no roundworms were found remaining
- % Elimination ([5]; 1 administration, 1 mg/kg): 4.0%
- Number of worms eliminated ([5]; 1 administration, 1 mg/kg): 14
- Number of remaining worms ([5]; 1 administration, 1 mg/kg): 334
- EPG Before administration ([5]; 1 administration, 1 mg/kg): 5500
- EPG Upon autopsy ([5]; 1 administration, 1 mg/kg): 1200
- % Elimination ([5]; 1 administration, 10 mg/kg): 100%
- Number of remaining worms ([5]; 1 administration, 10 mg/kg): 0
- EPG Before administration ([5]; 1 administration, 10 mg/kg): 1800
- EPG Upon autopsy ([5]; 1 administration, 10 mg/kg): 0
- % Elimination [5, 11]: 100%
- EPG Upon autopsy [5, 11]: 0
- % Elimination [5, 12]: 100%
- Number of remaining worms [5, 12]: 0
- EPG Before administration [5, 12]: 100
- EPG Upon autopsy [5, 12]: 0
- Number of worms remaining ([6]; 1 ppm in feed for 3 weeks, autopsy): 49 and 96 and 83
- Number of eggs before starting administration ([6]; 1 ppm in feed): > 300 and 172
- % Elimination ([6]; 5 ppm in feed for 3 weeks): 86.1% and 56.9% and 62.5%
- Number of eggs before starting administration ([6]; 5 ppm in feed): 300 and > 300 and 158
- Number of worms eliminated ([6]; 10 ppm in feed for 3 weeks): 44 and 55 and 45
- Number of eggs before starting administration ([6]; 10 ppm in feed): 300 and > 300 and 176
- body weight gains and abnormalities [7]: normal body weight gains are obtained without any abnormalities
- Classification by basicity, acidity or neutrality [8]: Neutral substance
- EPG At autopsy ([9]; oral 1 mg/kg): 3114
- EPG Before administration ([9]; oral 1 mg/kg): 2447
- EPG At autopsy ([9]; oral 5 mg/kg): 2462
- EPG Before administration ([9]; oral 5 mg/kg): 2458
- EPG At autopsy ([9]; oral 10 mg/kg): 1970
- EPG Before administration ([9]; oral 10 mg/kg): 2332
- EPG ([10]; Day 0): 77
- Number of worms eliminated ([10]; Day 0): 0
- EPG ([10]; Day 1): 52
- Number of worms eliminated ([10]; Day 1): 22
- EPG ([10]; Day 2): 0.4
- Number of worms eliminated ([10]; Day 2): 17
- EPG ([10]; Day 3): 0.2
- Number of worms eliminated ([10]; Day 3): 0
- EPG ([10]; Day 4): 0
- Number of worms eliminated ([10]; Day 4): 0
- EPG ([10]; Day 5): 0
- Number of worms eliminated ([10]; Day 5): 0
- EPG ([10]; Day 6): 0.2
- Number of worms eliminated ([10]; Day 6): 0
- EPG ([10]; Day 7): 0
- Number of worms eliminated ([10]; Day 7): 0
